Results: US20220104492A1, “PYRIDAZINIUM COMPOUNDS FOR USE IN A METHOD OF CONTROLLING UNWANTED PLANT GROWTH” (SYNGENTA CROP PROTECTION AG, priority 2019, published 2022)

Legend:
Assay in all cases: Post-emergence efficacy (glasshouse, spray application)
Format in all cases: in vivo
[1] = system: Amaranthus palmeri (AMAPA); details: 312 h, Application rate 500 g/Ha, evaluated after 13 days, 100=total damage to plant, 0=no damage to plant, read-out: Control of weed species after post-emergence application, AMAPA
Experimental: (§1) Seeds of a variety of test species were sown in standard soil in pots. After cultivation for 14 days (post-emergence) under controlled conditions in a glasshouse (at 24/16° C., day/night; 14 hours light; 65 humidity), the plants were sprayed with an aqueous spray solution derived from the dissolution of the technical active ingredient formula (I) in a small amount of acetone and a special solvent and emulsifier mixture referred to as IF50 (11.12% Emulsogen EL360 TM+44.44% N-methylpyrrolidone+44.44% Dowanol DPM glycol ether), to create a 50 g/l solution which was then diluted to required concentration using a solution of 0.25% or 1% Empicol ESC70 (Sodium lauryl ether sulphate)+1% ammonium sulphate in water as diluent.
(§2) The test plants were then grown in a glasshouse under controlled conditions (at 24/16° C., day/night; 14 hours light; 65% humidity) and watered twice daily. After 13 days the test was evaluated (100=total damage to plant; 0=no damage to plant).
(§3) Ipomoea hederacea (IPOHE), Euphorbia heterophylla (EPHHL), Chenopodium album (CHEAL), Amaranthus palmeri (AMAPA), Lolium perenne (LOLPE), Digitaria sanguinalis (DIGSA), Eleusine indica (ELEIN), Echinochloa crus-galli (ECHCG), Setaria faberi (SETFA)

[2] = system: Chenopodium album (CHEAL); details: 312 h, Application rate 500 g/Ha, evaluated after 13 days, 100=total damage to plant, 0=no damage to plant, read-out: Control of weed species after post-emergence application, CHEAL
Experimental: as §1, §2, §3

[3] = system: Digitaria sanguinalis (DIGSA); details: 312 h, Application rate 500 g/Ha, evaluated after 13 days, 100=total damage to plant, 0=no damage to plant, read-out: Control of weed species after post-emergence application, DIGSA
Experimental: as §1, §2, §3

[4] = system: Echinochloa crus-galli (ECHCG); details: 312 h, Application rate 500 g/Ha, evaluated after 13 days, 100=total damage to plant, 0=no damage to plant, read-out: Control of weed species after post-emergence application, ECHCG
Experimental: as §1, §2, §3

Eleusine indica (ELEIN) = details: 312 h, Application rate 500 g/Ha, evaluated after 13 days, 100=total damage to plant, 0=no damage to plant, read-out: Control of weed species after post-emergence application, ELEIN
Experimental: as §1, §2, §3

[5] = system: Euphorbia heterophylla (EPHHL); details: 312 h, Application rate 500 g/Ha, evaluated after 13 days, 100=total damage to plant, 0=no damage to plant, read-out: Control of weed species after post-emergence application, EPHHL
Experimental: as §1, §2, §3

[6] = system: Ipomoea hederacea (IPOHE); details: 312 h, Application rate 500 g/Ha, evaluated after 13 days, 100=total damage to plant, 0=no damage to plant, read-out: Control of weed species after post-emergence application, IPOHE
Experimental: as §1, §2, §3

Lolium perenne (LOLPE) = details: 312 h, Application rate 500 g/Ha, evaluated after 13 days, 100=total damage to plant, 0=no damage to plant, read-out: Control of weed species after post-emergence application, LOLPE
Experimental: as §1, §2, §3

Setaria faberi (SETFA) = details: 312 h, Application rate 500 g/Ha, evaluated after 13 days, 100=total damage to plant, 0=no damage to plant, read-out: Control of weed species after post-emergence application, SETFA
Experimental: as §1, §2, §3

Compound | pest or weed control at 500 g/ha [1] | pest or weed control at 500 g/ha [2] | pest or weed control at 500 g/ha [3] | pest or weed control at 500 g/ha [4] | pest or weed control at 500 g/ha (Eleusine indica (ELEIN)) | pest or weed control at 500 g/ha [5] | pest or weed control at 500 g/ha [6] | pest or weed control at 500 g/ha (Lolium perenne (LOLPE)) | pest or weed control at 500 g/ha (Setaria faberi (SETFA))
CN(CC[n+]1ccc(-c2ncccn2)cn1)S(=O)(=O)CC(=O)O [Compound A30, 2-[methyl-[2-(4-pyrimidin-2-ylpyridazin-1-ium-1-yl)ethyl]-sulfamoyl]acetic acid chloride] | 100% | 80% | 70% | 100% | 40% | 90% | 20% | 50% | 60%
CC(=O)N(CC[n+]1ccc(-c2ncccn2)cn1)CC(=O)O [Compound A31] | 100% | 90% | 80% | 60% | 60% | 90% | 50% | 20% | 60%
CC(C)(NC(=O)CC[n+]1ccc(-c2ncccn2)cn1)C(=O)O [Compound A32] | 100% | 100% | 80% | 70% | 80% | 80% | 30% | 60% | 80%
O=C(O)CSC[n+]1ccc(-c2ncccn2)cn1 [Compound A33, 2-[(4-pyrimidin-2-ylpyridazin-1-ium-1-yl)methylsulfanyl]acetic acid 2,2,2-trifluoroacetate] | 100% | 100% | 100% | 100% | 100% | 100% | 40% | 70% | 90%
CN(CC(=O)O)C(=O)C[n+]1ccc(-c2ccccn2)cn1 [Compound A34] | 90% | 0% | 20% | 30% | 20% | 50% | 40% | 10% | 40%
O=C(O)CNC(=O)C[n+]1ccc(-c2cnccn2)cn1 [Compound A35] | 70% | 40% | 100% | 50% | 60% | 40% | 20% | 0% | 60%
CC(C)(CC(=O)O)NC(=O)CC[n+]1ccc(-c2ncccn2)cn1 [Compound A36] | 100% | 100% | 100% | 40% | 100% | 90% | 20% | 90% | 100%
CC(C)(NC(=O)C[n+]1ccc(-c2ncccn2)cn1)C(=O)O [Compound A37] | 100% | 50% | 70% | 40% | 70% | 80% | 40% | 70% | 80%
O=C(CC[n+]1ccc(-c2ncccn2)cn1)NC1(C(=O)O)CC1 [Compound A38] | 100% | 100% | 90% | 50% | 100% | 80% | 10% | 90% | 100%
O=C(O)COC[n+]1ccc(-c2ncccn2)cn1 [Compound A39] | 100% | 80% | 100% | 80% | 60% | 90% | 80% | 70% | 70%
